The values that follow are results of earlier work, collected in PubChem BioAssay AID1259410 (Chemical Carcinogenesis Research Information System (CCRIS), 2018).

The test system of the data set is rodent tumor promotion studies, tumor incidence. As to the kind of experiment: CCRIS tumor promotion studies.

For the molecule `CCC1(c2ccccc2)C(=O)NC(=O)NC1=O`, the outcome is “liver” (Carcinogen: 2-(ACETYLAMINO)FLUORINE, Doses [Carcinogen]: DIET, Doses [Promoter]: IN DIET, Route [Carcinogen]: ORAL, Route [Promoter]: ORAL, Species: RAT, Strain/Sex: MALE); “liver” (Carcinogen: 3'-METHYL-4-DIMETHYLAMINOAZOBENZENE, Doses [Carcinogen]: DIET, Doses [Promoter]: IN DIET, Route [Carcinogen]: ORAL, Route [Promoter]: ORAL, Species: RAT, Strain/Sex: MALE); “liver” (Carcinogen: 4-DIMETHYLAMINOAZOBENZENE, Doses [Carcinogen]: DIET, Doses [Promoter]: IN DIET, Route [Carcinogen]: ORAL, Route [Promoter]: ORAL, Species: RAT, Strain/Sex: MALE); “liver: tumor incidence was 100% by 52 wk and 10 tumors/animal” (Carcinogen: DIETHYLNITROSAMINE [55-18-5], Doses [Carcinogen]: 90 MG/KG BW ONCE, Doses [Promoter]: 90 MG/KG BW DAILY FOR UP TO 76 WK STARTING 2 WK AFTER CARCINOGEN TREATMENT (STUDY DURATION: 76 WK), Route [Carcinogen]: IP INJECTION, Route [Promoter]: DIET, Species: MOUSE, Strain/Sex: C3H/HE/MALE); “liver: promoter increased liver tumor incidence considerably, 12 tumors/animal a” (Carcinogen: DIETHYLNITROSAMINE [55-18-5], Doses [Carcinogen]: 90 MG/KG BW ONCE, Doses [Promoter]: 90 MG/KG BW DAILY FOR UP TO 90 WK STARTING 2 WK AFTER CARCINOGEN TREATMENT (STUDY DURATION: 92 WK), Route [Carcinogen]: IP INJECTION, Route [Promoter]: DIET, Species: MOUSE, Strain/Sex: B6C3F1/MALE); “liver: tumor; 5 tumors/animal at 76 wk; pb increased tumors somewhat at 40-92 wk” (Carcinogen: DIETHYLNITROSAMINE [55-18-5], Doses [Carcinogen]: 90 MG/KG BW ONCE, Doses [Promoter]: 90 MG/KG BW DAILY FOR UP TO 90 WK STARTING 2 WK AFTER CARCINOGEN TREATMENT (STUDY DURATION: 92 WK), Route [Carcinogen]: IP INJECTION, Route [Promoter]: DIET, Species: MOUSE, Strain/Sex: C57BL/6J/MALE). For the same molecule, the outcome by setting is: (Carcinogen: DIETHYLNITROSAMINE, 55-18-5, Doses [Carcinogen]: 5 MG/KG IN SALINE ONCE ON DAY 15 OF AGE, Doses [Promoter]: 0, 500 MG/L FOR 24 WK BEGINNING AT 28 DAYS OF AGE (STUDY DURATION: 28 WK), Route [Carcinogen]: INTRAPERITONEAL, Route [Promoter]: ORAL, Species: MOUSE, Strain/Sex: C3H/MALE) “liver: adenoma”; (Carcinogen: DIETHYLNITROSAMINE, 55-18-5, Doses [Carcinogen]: 10 MG/KG ONCE, Doses [Promoter]: 0, 500 PPM IN DIET FOR 140 D BEGINNING 30 D POST CARCINOGEN DOSE (STUDY DURATION: 450 D), Route [Carcinogen]: INTRAPERITONEAL, Route [Promoter]: ORAL, Species: RAT, Strain/Sex: SPRAGUE-DAWLEY/FEMALE) “liver: adenoma or carcinoma”; (Carcinogen: DIETHYLNITROSAMINE, 55-18-5, Doses [Carcinogen]: 80 MG/KG BW ONCE, Doses [Promoter]: 0, 0.05% IN DIET FOR 39 WK BEGINNING 1 WK POST CARCINOGEN DOSE (STUDY DURATION: 40 WK), Route [Carcinogen]: INTRAPERITONEAL, Route [Promoter]: ORAL, Species: RAT, Strain/Sex: F344/MALE) “liver: tumor”; (Carcinogen: DIETHYLNITROSAMINE, 55-18-5, Doses [Carcinogen]: 150 MG/KG ONCE, Doses [Promoter]: 0.05% IN DIET BEGINNING 2 WK POST CARCINOGEN DOSE AND CONTINUING FOR 54 WK (STUDY DURATION: 56 WK), Route [Carcinogen]: INTRAPERITONEAL, Route [Promoter]: ORAL, Species: RAT, Strain/Sex: F344/MALE) “liver: hepatocellular carcinoma or neoplastic nodule”; (Carcinogen: DIETHYLNITROSAMINE, 55-18-5, Doses [Carcinogen]: 150 MG/KG ONCE, Doses [Promoter]: 0.05% IN DIET BEGINNING 2 WK POST CARCINOGEN DOSE FOR 11 WK FOLLOWED BY CONTROL DIET FOR DURATION OF STUDY (STUDY DURATI, Route [Carcinogen]: INTRAPERITONEAL, Route [Promoter]: ORAL, Species: RAT, Strain/Sex: F344/MALE) “liver: hepatocellular carcinoma or neoplastic nodule”; (Carcinogen: DIETHYLNITROSAMINE, 55-18-5, Doses [Carcinogen]: 150 MG/KG ONCE, Doses [Promoter]: 0.05% IN DIET BEGINNING 11 WK POST CARCINOGEN DOSE AND CONTINUING FOR DURATION OF STUDY (STUDY DURATION: 56 WK), Route [Carcinogen]: INTRAPERITONEAL, Route [Promoter]: ORAL, Species: RAT, Strain/Sex: F344/MALE) “liver: hepatocellular carcinoma or neoplastic nodule”. The outcome runs as follows: (Carcinogen: DIETHYLNITROSAMINE, Doses [Carcinogen]: SC, Doses [Promoter]: IN DIET, Route [Carcinogen]: SUBCUTANEOUS, Route [Promoter]: ORAL, Species: RAT, Strain/Sex: MALE) “liver”; (Carcinogen: DIMETHYLNITROSAMINE, 62-75-9, Doses [Carcinogen]: 5 MG/KG IN SALINE ONCE ON DAY 15 OF AGE, Doses [Promoter]: 0, 500 MG/L FOR 24 WK BEGINNING AT 28 DAYS OF AGE (STUDY DURATION: 28 WK), Route [Carcinogen]: INTRAPERITONEAL, Route [Promoter]: ORAL, Species: MOUSE, Strain/Sex: B6C3F1/MALE) “liver: adenoma”; (Carcinogen: DIMETHYLNITROSAMINE, 62-75-9, Doses [Carcinogen]: 5 MG/KG IN SALINE ONCE ON DAY 15 OF AGE, Doses [Promoter]: 0, 500 MG/L FOR 24 WK BEGINNING AT 28 DAYS OF AGE (STUDY DURATION: 28 WK), Route [Carcinogen]: INTRAPERITONEAL, Route [Promoter]: ORAL, Species: MOUSE, Strain/Sex: C3H/MALE) “liver: adenoma”.
